# Test results from US8283291B2, “Herbicidal composition” (Kumiai Chemical Industry Co., Ltd., priority 2006, dated 2012).
# Tests used:
# [1] = test system: italian ryegrass (LOLMU); assay: Test 4 on herbicidal effects against weeds and phytotoxicity by upland soil treatment; format: in vivo; details: 28th day
# From the text: (§1) In a plastic pot of 14 cm in length×23 cm in width×8 cm in depth, upland soil was filled, and seeds of soybean (GLXMA), corn (ZEAMX), Ipomoea lacunosa L. (IPOLA) and velvetleaf (ABUTH) were sown and covered with soil. A wettable powder prepared in accordance with Formulation Example 1 was weighed so that the active ingredients became the prescribed amounts, diluted with water and uniformly applied to the soil surface by means of a small size spray at a rate of 500 liters per 1 hectare. Thereafter, cultivation was carried out in a greenhouse, and on the 28th day after the treatment, the herbicidal effects and phytotoxicity were examined in accordance with the standards as identified in Table 15.
# (§2) The test on herbicidal effects and phytotoxicity against wheat (TRZAW), italian ryegrass (LOLMU), common chickweed (STEME) and common lambsquater (CHEAL) was carried out in the same manner as the above Test Example 1.
# [2] = test system: common chickweed (STEME); assay: Test 2 on herbicidal effects against weeds and phytotoxicity by upland soil treatment; format: in vivo, Stellaria media; details: 28th day
# From the text: as §1
# (§3) The test on herbicidal effects and phytotoxicity against wheat (TRZAW), common chickweed (STEME) and Persian speedwell (VERPE) was carried out in the same manner as the above Test Example 1.
# [3] = test system: common chickweed (STEME); assay: Test 3 on herbicidal effects against weeds and phytotoxicity by upland soil treatment; format: in vivo, Stellaria media; details: 28th day
# From the text: as §1
# (§4) The test on herbicidal effects and phytotoxicity against corn (ZEAMX), barnyardgrass (ECHCG), common chickweed (STEME) and common lambsquater (CHEAL) was carried out in the same manner as the above Test Example 1.
# [4] = test system: barnyardgrass (ECHCG); assay: as above; format: in vivo, Echinochloa crus-galli; details: 28th day
# From the text: as §1, §4
# [5] = test system: common lambsquater (CHEAL); assay: as above; format: in vivo, Chenopodium album; details: 28th day
# From the text: as §1, §4
# [6] = test system: Persian speedwell (VERPE); assay: Test 2 on herbicidal effects against weeds and phytotoxicity by upland soil treatment; format: in vivo; details: 28th day
# From the text: as §1, §3
# [7] = test system: common chickweed (STEME); assay: Test 4 on herbicidal effects against weeds and phytotoxicity by upland soil treatment; format: in vivo, Stellaria media; details: 28th day
# From the text: as §1, §2
# [8] = test system: corn (ZEAMX); assay: Test on effects of reducing phytotoxicity against corn by upland soil treatment; format: in vivo; details: 21st day
# Experimental: In a plastic pot of 11 cm in length×11 cm in width×11 cm in depth, upland soil was filled, and seeds of corn (ZEAMX) were sown and covered with soil. A wettable powder prepared in accordance with Formulation Example 1 was weighed so that the active ingredients would be the prescribed amounts, diluted with water and uniformly applied to the soil surface by means of a small size spray at a rate of 500 liter per 1 hectare. Then, cultivation was carried out in a greenhouse, and on the 21st day after the treatment, the phytotoxicity against corn was examined in accordance with the standards as identified in Table 15.
# [9] = test system: corn (ZEAMX); assay: Test on herbicidal effects against weeds and phytotoxicity by foliage treatment in upland field; format: in vivo; details: 21st day
# Experimental: (§5) In a plastic pot of 11 cm in length×11 cm in width×11 cm in depth, the upland soil was filled, and seeds of corn (ZEAMX), soybean (GLXMA), greenfoxtail (SETVI), shattercane (SORVU), redroot pigweed (AMARE), Ipomoea lacunosa L. (IPOLA) and velvetleaf (ABUTH) were sown and covered with soil.
# (§6) Then, cultivation was carried out in a greenhouse for 10 days. Then, a wettable powder prepared in accordance with Formulation Example 1 was weighed so that active ingredients would be the prescribed amounts, […] spray at a rate of 500 liter per 1 hectare. Thereafter, cultivation was carried out in a greenhouse, and on the 21st day after the treatment, the herbicidal effects and phytotoxicity were examined in accordance with the standards as identified in Table 15.
# [10] = test system: soybean (GLXMA); assay: as above; format: in vivo; details: 21st day
# Experimental: as §5, §6
# [11] = test system: soybean (GLXMA); assay: Test 1 on herbicidal effects against weeds and phytotoxicity by upland soil treatment; format: in vivo; details: 28th day
# Experimental: (§7) In a plastic pot of 14 cm in length×23 cm in width×8 cm in depth, upland soil was filled, and seeds of soybean (GLXMA), corn (ZEAMX), Ipomoea lacunosa L. (IPOLA) and velvetleaf (ABUTH) were sown and covered with soil. […] Thereafter, cultivation was carried out in a greenhouse, and on the 28th day after the treatment, the herbicidal effects and phytotoxicity were examined in accordance with the standards as identified in Table 15.
# [12] = test system: Ipomoea lacunosa L. (IPOLA); assay: as above; format: in vivo; details: 400 gai/ha, 28th day
# From the text: as §1
# [13] = test system: velvetleaf (ABUTH); assay: as above; format: in vivo, Abutilon theophrasti; details: 400 gai/ha, 28th day
# From the text: as §1
# [14] = test system: corn (ZEAMX); assay: as above; format: in vivo; details: 28th day
# Experimental: as §7
# [15] = test system: wheat (TRZAW); assay: Test 2 on herbicidal effects against weeds and phytotoxicity by upland soil treatment; format: in vivo; details: 28th day
# From the text: as §1, §3
# [16] = test system: wheat (TRZAW); assay: Test 4 on herbicidal effects against weeds and phytotoxicity by upland soil treatment; format: in vivo; details: 1000 gai/ha, 28th day
# From the text: as §1, §2
compound,measurement,setting,value
"Cn1nc(C(F)(F)F)c(CS(=O)(=O)C2=NOC(C)(C)C2)c1OC(F)F [3-0054, 3-[(5-difluoromethoxy-1-methyl-3-trifluoromethylpyrazol-4-yl)methylsulfonyl]-4,5-dihydro-5,5-dimethylisoxazole]",herbicidal effect LOLMU,[1]; 50 gai/ha,8 (Herbicidal effect or phytotoxicity of at least 80% and less than 90%)
same,herbicidal effect STEME,[2]; 18.8 gai/ha,5 (Herbicidal effect or phytotoxicity of at least 50% and less than 60%)
same,herbicidal effect STEME,[3]; 62.5 gai/ha,5 (Herbicidal effect or phytotoxicity of at least 50% and less than 60%)
same,herbicidal effect ECHCG,[4]; 62.5 gai/ha,10 (Herbicidal effect or phytotoxicity of 100%)
same,herbicidal effect CHEAL,[5]; 62.5 gai/ha,4 (Herbicidal effect or phytotoxicity of at least 40% and less than 50%)
same,herbicidal effect VERPE,[6]; 18.8 gai/ha,7 (Herbicidal effect or phytotoxicity of at least 70% and less than 80%)
same,herbicidal effect STEME,[7]; 50 gai/ha,4 (Herbicidal effect or phytotoxicity of at least 40% and less than 50%)
CCNc1nc(Cl)nc(NC(C)C)n1 [Atrazine],phytotoxicity against corn ZEAMX,[8]; 2500 gai/ha,0 (Herbicidal effect or phytotoxicity of at least 0% and less than 10%)
CC1COc2ccccc2N1C(=O)C(Cl)Cl (stereo not shown) [Benoxacor],phytotoxicity against corn ZEAMX,[8]; 50 gai/ha,0 (Herbicidal effect or phytotoxicity of at least 0% and less than 10%)
CC(C)N1C(=O)c2ccccc2NS1(=O)=O [Bentazone],phytotoxicity ZEAMX,[9]; 400 gai/ha,0 (Herbicidal effect or phytotoxicity of at least 0% and less than 10%)
same,phytotoxicity GLXMA,[10]; 400 gai/ha,0 (Herbicidal effect or phytotoxicity of at least 0% and less than 10%)
C[C@H](NC(=O)[C@H](C)NC(=O)[C@@H](N)CCP(C)(=O)O)C(=O)O [Bilanafos],phytotoxicity ZEAMX,[9]; 1000 gai/ha,9 (Herbicidal effect or phytotoxicity of at least 90% and less than 100%)
same,phytotoxicity GLXMA,[10]; 1000 gai/ha,9 (Herbicidal effect or phytotoxicity of at least 90% and less than 100%)
COc1cc(OC)nc(Oc2cccc(Oc3nc(OC)cc(OC)n3)c2C(=O)O)n1 [Bispyribac-sodium],phytotoxicity ZEAMX,[9]; 12.5 gai/ha,0 (Herbicidal effect or phytotoxicity of at least 0% and less than 10%)
same,phytotoxicity GLXMA,[10]; 12.5 gai/ha,9 (Herbicidal effect or phytotoxicity of at least 90% and less than 100%)
CCOC(=O)c1ccccc1S(=O)(=O)NC(=O)Nc1nc(Cl)cc(OC)n1 [Chlorimuron-ethyl],phytotoxicity ZEAMX,[9]; 6.3 gai/ha,4 (Herbicidal effect or phytotoxicity of at least 40% and less than 50%)
same,phytotoxicity GLXMA,[10]; 6.3 gai/ha,0 (Herbicidal effect or phytotoxicity of at least 0% and less than 10%)
CC1(C)CON(Cc2ccccc2Cl)C1=O [Clomazone],phytotoxicity GLXMA,[11]; 200 gai/ha,0 (Herbicidal effect or phytotoxicity of at least 0% and less than 10%)
COC[C@H](C)N(C(=O)CCl)c1c(C)csc1C [Dimethenamid-P],herbicidal effect IPOLA,[12],5 (Herbicidal effect or phytotoxicity of at least 50% and less than 60%)
same,herbicidal effect ABUTH,[13],7 (Herbicidal effect or phytotoxicity of at least 70% and less than 80%)
CN(C)C(=O)Nc1ccc(Cl)c(Cl)c1 [Diuron],phytotoxicity ZEAMX,[14]; 800 gai/ha,8 (Herbicidal effect or phytotoxicity of at least 80% and less than 90%)
same,phytotoxicity GLXMA,[11]; 800 gai/ha,8 (Herbicidal effect or phytotoxicity of at least 80% and less than 90%)
COC(=O)CSc1cc(/N=c2\sc(=O)n3n2CCCC3)c(F)cc1Cl [Fluthiacet-methyl],phytotoxicity ZEAMX,[9]; 10 gai/ha,0 (Herbicidal effect or phytotoxicity of at least 0% and less than 10%)
same,phytotoxicity GLXMA,[10]; 10 gai/ha,0 (Herbicidal effect or phytotoxicity of at least 0% and less than 10%)
CC(C)c1ccc(NC(=O)N(C)C)cc1 [Isoproturon],herbicidal effect STEME,[2]; 375 gai/ha,6 (Herbicidal effect or phytotoxicity of at least 60% and less than 70%)
same,herbicidal effect VERPE,[6]; 375 gai/ha,5 (Herbicidal effect or phytotoxicity of at least 50% and less than 60%)
CNc1cnn(-c2cccc(C(F)(F)F)c2)c(=O)c1Cl [Norflurazon],phytotoxicity ZEAMX,[14]; 400 gai/ha,9 (Herbicidal effect or phytotoxicity of at least 90% and less than 100%)
same,phytotoxicity GLXMA,[11]; 400 gai/ha,1 (Herbicidal effect or phytotoxicity of at least 10% and less than 20%)
C[n+]1ccc(-c2cc[n+](C)cc2)cc1 [Paraquat],phytotoxicity ZEAMX,[9]; 500 gai/ha,6 (Herbicidal effect or phytotoxicity of at least 60% and less than 70%)
same,phytotoxicity GLXMA,[10]; 500 gai/ha,10 (Herbicidal effect or phytotoxicity of 100%)
O=C(Nc1ccc(F)cc1)c1cccc(Oc2cccc(C(F)(F)F)c2)n1 [Picolinafen],herbicidal effect STEME,[2]; 16 gai/ha,5 (Herbicidal effect or phytotoxicity of at least 50% and less than 60%)
same,phytotoxicity TRZAW,[15]; 16 gai/ha,0 (Herbicidal effect or phytotoxicity of at least 0% and less than 10%)
same,herbicidal effect VERPE,[6]; 16 gai/ha,6 (Herbicidal effect or phytotoxicity of at least 60% and less than 70%)
CCCN(CCC)C(=O)SCc1ccccc1 [Prosulfocarb],herbicidal effect STEME,[3]; 1600 gai/ha,5 (Herbicidal effect or phytotoxicity of at least 50% and less than 60%)
same,herbicidal effect ECHCG,[4]; 1600 gai/ha,2 (Herbicidal effect or phytotoxicity of at least 20% and less than 30%)
same,herbicidal effect CHEAL,[5]; 1600 gai/ha,5 (Herbicidal effect or phytotoxicity of at least 50% and less than 60%)
CCOC(=O)C(C)Oc1ccc(Oc2cnc3cc(Cl)ccc3n2)cc1 (stereo not shown) [Quizalofop-ethyl],phytotoxicity ZEAMX,[9]; 25 gai/ha,10 (Herbicidal effect or phytotoxicity of 100%)
same,phytotoxicity GLXMA,[10]; 25 gai/ha,0 (Herbicidal effect or phytotoxicity of at least 0% and less than 10%)
CCC/C(=N\OCC)C1=C(O)CC(CC(C)SCC)CC1=O (stereo not shown) [Sethoxydim],phytotoxicity ZEAMX,[9]; 100 gai/ha,9 (Herbicidal effect or phytotoxicity of at least 90% and less than 100%)
same,phytotoxicity GLXMA,[10]; 100 gai/ha,0 (Herbicidal effect or phytotoxicity of at least 0% and less than 10%)
CS(=O)(=O)c1ccc(C(=O)C2C(=O)CCCC2=O)c(Cl)c1 [Sulcotrione],phytotoxicity against corn ZEAMX,[8]; 1000 gai/ha,1 (Herbicidal effect or phytotoxicity of at least 10% and less than 20%)
same,phytotoxicity ZEAMX,[9]; 25 gai/ha,0 (Herbicidal effect or phytotoxicity of at least 0% and less than 10%)
same,phytotoxicity GLXMA,[10]; 25 gai/ha,6 (Herbicidal effect or phytotoxicity of at least 60% and less than 70%)
CC(C)N(C(=O)SCC(Cl)=C(Cl)Cl)C(C)C [Triallate],phytotoxicity TRZAW,[16],0 (Herbicidal effect or phytotoxicity of at least 0% and less than 10%)
same,herbicidal effect LOLMU,[1]; 1000 gai/ha,2 (Herbicidal effect or phytotoxicity of at least 20% and less than 30%)
same,herbicidal effect STEME,[7]; 1000 gai/ha,2 (Herbicidal effect or phytotoxicity of at least 20% and less than 30%)
CCCN(CCC)c1c([N+](=O)[O-])cc(C(F)(F)F)cc1[N+](=O)[O-] [Trifluralin],herbicidal effect STEME,[2]; 250 gai/ha,10 (Herbicidal effect or phytotoxicity of 100%)
same,phytotoxicity TRZAW,[15]; 250 gai/ha,0 (Herbicidal effect or phytotoxicity of at least 0% and less than 10%)
same,herbicidal effect VERPE,[6]; 250 gai/ha,7 (Herbicidal effect or phytotoxicity of at least 70% and less than 80%)
